The results in this text go back to patent publication US9981944B2, “GDF-8 inhibitors” (Rigel Pharmaceuticals, Inc., priority 2015, dated 2018).

By IC50 is commonly meant the concentration needed to halve the response being measured.

Assay [1] addresses HIS-TGFβR2 WT (Homo sapiens (Human), UniProt P37173). Put plainly: HTRF probe displacement assay, HIS-TGFβR2 WT. Format: binding. The following applies: 1 nM HIS-TGFβR2 WT, 1 hour at room temperature, read-out: TGFBR2WT IC50. Here is the method: (§1) Compounds were dissolved at 10 mM in dimethylsulfoxide (DMSO) and evaluated at eleven concentrations. IC50 values were derived by non-linear regression analysis.
For orientation: TR-FRET usually uses a lanthanide donor and a delayed reading to cut background.

Assay [2] has as its target HIS-TGFβR1 T204D (Homo sapiens (Human), UniProt P36897, T204D). Briefly: HTRF probe displacement assay, HIS-TGFβR1 T204D. Format: binding. The note with it: 1 nM HIS-TGFβR1 T204D, 1 hour at room temperature, read-out: TGFBR1T204D IC50. On the procedure: as §1

Where only a bound is given, the exact number is not on record here.

Sequence of HIS-TGFβR1 T204D (P36897 34-503 T204D): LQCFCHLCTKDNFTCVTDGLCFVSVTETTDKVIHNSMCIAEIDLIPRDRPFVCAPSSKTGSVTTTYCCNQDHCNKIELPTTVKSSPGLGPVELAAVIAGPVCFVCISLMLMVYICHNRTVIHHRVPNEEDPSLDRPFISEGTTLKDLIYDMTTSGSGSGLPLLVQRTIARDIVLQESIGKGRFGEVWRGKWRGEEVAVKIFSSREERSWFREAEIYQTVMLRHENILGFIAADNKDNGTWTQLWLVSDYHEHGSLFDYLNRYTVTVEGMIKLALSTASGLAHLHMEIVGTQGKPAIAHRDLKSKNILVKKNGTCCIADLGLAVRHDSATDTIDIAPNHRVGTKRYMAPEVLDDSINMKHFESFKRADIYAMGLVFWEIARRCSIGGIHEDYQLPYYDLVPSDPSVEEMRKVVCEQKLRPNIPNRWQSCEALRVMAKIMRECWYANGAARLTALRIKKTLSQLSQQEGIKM
Sequence of HIS-TGFβR2 WT (P37173 23-567): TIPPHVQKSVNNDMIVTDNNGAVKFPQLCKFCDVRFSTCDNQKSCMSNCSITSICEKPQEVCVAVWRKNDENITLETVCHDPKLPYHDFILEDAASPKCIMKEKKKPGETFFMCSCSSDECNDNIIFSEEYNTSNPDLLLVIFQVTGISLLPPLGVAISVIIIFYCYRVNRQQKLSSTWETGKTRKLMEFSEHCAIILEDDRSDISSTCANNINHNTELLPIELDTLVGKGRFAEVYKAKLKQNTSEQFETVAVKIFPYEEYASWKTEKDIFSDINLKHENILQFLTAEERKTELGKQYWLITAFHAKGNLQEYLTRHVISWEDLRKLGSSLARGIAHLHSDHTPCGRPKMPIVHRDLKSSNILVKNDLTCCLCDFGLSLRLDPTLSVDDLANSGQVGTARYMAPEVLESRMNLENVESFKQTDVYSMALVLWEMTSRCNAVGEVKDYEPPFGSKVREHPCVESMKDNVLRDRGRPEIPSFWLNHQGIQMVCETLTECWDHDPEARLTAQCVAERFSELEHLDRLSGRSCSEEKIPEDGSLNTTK

As for `FC(F)c1cccc(-c2ncccc2-c2ccc3[nH]ncc3c2)n1` [Compound 115, 5-(6′-(difluoromethyl)-[2,2′-bipyridin]-3-yl)-1H-indazole], the IC50 in assay [1] was above 15000 nM; in assay [2], 3 nM.
For `Cc1nc(-c2ncccc2-c2ccn3nccc3n2)ccc1F` [Compound 137, 5-(5′-fluoro-6′-methyl-[2,2′-bipyridin]-3-yl)pyrazolo[1,5-a]pyrimidine], in that order: above 15000 nM and 8 nM.
For `Cc1cccc(-c2ncccc2-c2ccc3ncc(C(=O)NCC(F)(F)F)n3c2)n1` [Compound 69, 6-(6′-methyl-[2,2′-bipyridin]-3-yl)-N-(2,2,2-trifluoroethyl)imidazo[1,2-a]pyridine-3-carboxamide], in that order: above 15000 nM and 7 nM.
Regarding `Cc1nc(-c2ncccc2-c2ccc3ncnc(N)c3n2)ccc1F` [Compound 103, 6-(5′-fluoro-6′-methyl-[2,2′-bipyridin]-3-yl)pyrido[3,2-d]pyrimidin-4-amine], the IC50 was above 15000 nM in assay [1] and 4 nM in assay [2].
For `FC(F)(F)c1cccc(-c2ncccc2-c2ccn3nccc3n2)n1` [Compound 136, 5-(6′-(trifluoromethyl)-[2,2′-bipyridin]-3-yl)pyrazolo[1,5-a]pyrimidine], in that order: above 15000 nM and 15 nM.
For `Cc1cccc(-c2ncccc2-c2ccn3nccc3n2)n1` [Compound 138, 5-(6′-methyl-[2,2′-bipyridin]-3-yl)pyrazolo[1,5-a]pyrimidine], in that order: above 15000 nM and 5 nM.
The matching figures for `CC(C)c1cccc(-c2ncccc2-c2ccc3ncc(C(N)=O)n3c2)n1` [Compound 32, 6-(6′-isopropyl-[2,2′-bipyridin]-3-yl)imidazo[1,2-a]pyridine-3-carboxamide]: above 15000 nM and 16 nM.
For the compound `O=C(NC1CC1)c1cnn2ccc(-c3cccnc3-c3cccc(C(F)(F)F)n3)nc12` [Compound 126, N-cyclopropyl-5-(6′-(trifluoromethyl)-[2,2′-bipyridin]-3-yl)pyrazolo[1,5-a]pyrimidine-3-carboxamide], the IC50 was above 15000 nM in assay [1] and 94 nM in assay [2].
For `CCOC(=O)c1cnn2ccc(-c3cccnc3-c3cccc(C(F)(F)F)n3)nc12` [Compound 123, ethyl 5-(6′-(trifluoromethyl)-[2,2′-bipyridin]-3-yl)pyrazolo[1,5-a]pyrimidine-3-carboxylate], in that order: above 15000 nM and 46 nM.
The matching figures for `Cc1cccc(-c2ncccc2-c2ccc3nccnc3c2)n1` [Compound 113, 6-(6′-methyl-[2,2′-bipyridin]-3-yl)quinoxaline]: above 15000 nM and 9 nM.
For `N#Cc1cnc2ccc(-c3cccnc3-c3ccccn3)cn12` [Compound 13, 6-([2,2′-bipyridin]-3-yl)imidazo[1,2-a]pyridine-3-carbonitrile], in that order: above 15000 nM and 103 nM.
`Cc1nc(-c2ncccc2-c2ccc3ncc(C(N)=O)n3n2)ccc1F` [Compound 43, 6-(5′-fluoro-6′-methyl-[2,2′-bipyridin]-3-yl)imidazo[1,2-b]pyridazine-3-carboxamide]: the IC50 was above 15000 nM in assay [1] and 17 nM in assay [2].
On to `Cc1cccc(-c2nccc(CO)c2-c2ccc3ncc(C#N)n3c2)n1` [Compound 92, 6-(4-(hydroxymethyl)-6′-methyl-[2,2′-bipyridin]-3-yl)imidazo[1,2-a]pyridine-3-carbonitrile], for which the IC50 in assay [1] was above 15000 nM; in assay [2] it was 487 nM.
The matching figures for `N#Cc1cnc2ccc(-c3cccnc3-c3cccc(F)n3)cn12` [Compound 36, 6-(6′-fluoro-[2,2′-bipyridin]-3-yl)imidazo[1,2-a]pyridine-3-carbonitrile]: above 15000 nM and 120 nM.
